This is an account of results in patent publication US20040176466A1, “Combination therapy for the treatment of neurological disorders” (priority 2001, published 2004).

Values joined by “and” are separate entries in the source; they are usually repeats but may differ in a detail not shown here. Equal entries are not always repeated. Where two headings read alike, the source gives them in different places.

Series [1] is described as follows: Steady-state pharmacokinetics of atomoxetine alone and coadministered with paroxetine in CYP2D6 extensive metabolizers. The class given is in vivo. The conditions noted are these: both sexes, human, plasma, oral; for AUC: read-out: AUC0-τ; for Vd/F: read-out: Vz/F. The method, then:
The study was conducted at the Lilly Laboratory for Clinical Research in Indianapolis, Ind. The protocol and informed consent documents were approved by the Institutional Review Board of Indiana University—Purdue University at Indianapolis. The study was conducted in accordance with the Declaration of Helsinki. All participants provided informed written consent before enrollment into the study. All volunteers were considered to be healthy on the basis of medical history, electrocardiographic findings, and routine clinical laboratory tests. Volunteers with clinically abnormal results were excluded from the study.
Only CYP2D6 extensive metabolizers, as determined by genotyping and phenotyping analyses, were entered in this study. CYP2D6 genotype was performed by PPGx (Morrisville, N.C.). DNA from whole blood samples were isolated and purified and analyzed for CYP2D6 genotype using a validated PCR ([…]) method. CYP2D6 genotype was evaluated by testing the *3, *4, *5, *6, *7, and *8 poor metabolizer (PM) alleles. If patients were homozygous for any combination of these alleles, a PM genotype was assigned; otherwise, an extensive metabolizer genotype (EM) was assigned. CYP2D6 phenotype was performed using the urine ratio of dextromethorphan/dextrorphan following an oral dose of dextromethorphan. Volunteers with a ratio greater than 0.3 were assigned a PM phenotype, and those with a ratio less than 0.3 were assigned an EM phenotype.
This was a single-blind, sequential study composed of two periods. […] Doses were administered with 240 mL of water.
Pharmacokinetic parameter estimates were calculated with noncompartmental analysis by using WinNonlin Professional Version 2.1 (Pharsight Corp, Mountain View, Calif.). The steady state maximum plasma concentration (Css,max), and the corresponding time of the maximum concentration (Tmax) were observed values. The elimination rate constant (λz) was determined as the slope of the linear regression for the terminal log-linear portion of the concentration-time curve. Terminal half-life (t1/2) was calculated as ln(2)/λz. The area under the plasma concentration time curve (AUC0-τ) over the dosing interval was estimated by the linear trapezoidal method. […] Apparent clearance (CLss/F) and apparent volume of distribution (Vz/F) were calculated as Dose/AUC0-τ and as (CLss/F)/λz, respectively.
Except for Tmax, all parameters were log transformed, and a mixed-effect analysis of variance was performed with subject as a random effect. […] For Tmax, a Wilcoxon sign-rank test was performed. Data from all subjects who received study drug are included in the pharmacokinetic and statistical analyses, except for the Tmax analyses that excluded subjects with measurements for only one treatment. Statistical analyses were performed with SAS Version 6.12 (SAS Institute, Cary, N.C.).

Series [2] concerns ADHD. Description: Study of atomoxetine versus placebo in the treatment of ADHD. Format: in vivo, human. The source says: Inter-individual variability in drug metabolism poses a challenge in predicting dosing, safety, and efficacy of a drug. Pharmacokinetic factors, as well as substantial intersubject pharmacodynamic variability, have been proposed as a factor in cases of therapeutic failure of methylphenidate (DeVane, et al., Journal of Clinical Psychopharmacology, 20(3), 347 (2000)).

For series [3] the following is noted: cited from earlier work.

As a reminder, the half-life is the time needed for the level to fall by half in the phase considered. What is called Tmax is the time from dosing to the highest level. Turning to `CNCC[C@@H](Oc1ccccc1C)c1ccccc1` [Atomoxetine, (R)-(−)-N-methyl-3-(2-methylphenoxy)-3-phenylpropylamine], the half-life in series [1] (20 mg, atomoxetine alone) is 235 min; in series [1] (20 mg, atomoxetine alone (Period 1), steady state, mean (range), n = 21), 242 min; in series [1] (after concomitant paroxetine administration) it was 601 min; in series [1] (atomoxetine with paroxetine (Period 2), steady state, mean (range), n = 14) it was 660 min; in series [3] (two patients (second class of kinetic disposition)) it was 17.1 h and 21 h. In addition, the time of peak concentration (Tmax) was 1 h in series [1] (20 mg, atomoxetine alone (Period 1), steady state, median (range), n = 21, read-out: Tmax); 1.5 h in series [1] (atomoxetine with paroxetine (Period 2), steady state, median (range), n = 14, read-out: Tmax); 0.5 h in series [1] (atomoxetine with paroxetine versus atomoxetine alone, read-out: median of the paired difference in Tmax). Further, the AUC in series [1] (20 mg) was found to be 846 ng·h/mL; in series [1], 5970 ng·h/mL. For the same molecule, the Vd/F in series [1] (20 mg) is 2.2 L/kg; in series [1], 0.803 L/kg. In series [2] (poor metabolizer ADHD patients), the “response to atomoxetine treatment” value is given as “greater response”. In addition, the “efficacy in the treatment of ADHD versus placebo” value in series [2] (regardless of CYP2D6 status, extensive or poor metabolizer) is on record as “robustly better than placebo”. Further, the mean half-life in series [3] (majority of patients) is 4.5 ± 1.1 h.
